Data from ChEMBL document CHEMBL1268831, “Indole alkaloids from Ervatamia hainanensis with potent acetylcholinesterase inhibition activities” (Bioorg Med Chem Lett, 2010).

Biological target: Acetylcholinesterase (Electrophorus electricus, UniProt O42275)
Assay: Inhibition of electric eel AChE by Ellman's method

Sequence of Acetylcholinesterase (O42275 whole entry): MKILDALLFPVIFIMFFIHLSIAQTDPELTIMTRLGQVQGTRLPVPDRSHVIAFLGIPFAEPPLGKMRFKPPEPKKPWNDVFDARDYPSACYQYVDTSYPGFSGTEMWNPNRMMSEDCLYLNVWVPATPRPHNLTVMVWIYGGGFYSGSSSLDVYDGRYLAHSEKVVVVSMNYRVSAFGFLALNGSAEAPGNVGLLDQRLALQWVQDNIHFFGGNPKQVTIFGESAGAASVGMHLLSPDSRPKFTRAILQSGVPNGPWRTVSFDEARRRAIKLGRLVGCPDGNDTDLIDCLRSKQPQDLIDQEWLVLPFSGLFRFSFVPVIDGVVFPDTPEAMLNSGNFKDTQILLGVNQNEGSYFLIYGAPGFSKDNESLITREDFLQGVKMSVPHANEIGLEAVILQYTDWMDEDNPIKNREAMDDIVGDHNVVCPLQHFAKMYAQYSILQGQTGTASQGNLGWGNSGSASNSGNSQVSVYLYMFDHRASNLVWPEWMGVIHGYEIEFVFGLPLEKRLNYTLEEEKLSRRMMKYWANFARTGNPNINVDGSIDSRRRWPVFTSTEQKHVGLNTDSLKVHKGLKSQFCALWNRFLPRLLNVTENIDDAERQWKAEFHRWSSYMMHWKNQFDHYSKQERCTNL

With `CC[C@H]1C[C@@H]2CN3CCc4c([nH]c5ccc(O)cc45)[C@](C(=O)OC)(C2)[C@H]13` the IC50 was 29 µM.
In the case of `COC(=O)[C@@]12C[C@@H]3C[C@H]([C@@H](C)O)[C@@H]1N(CCc1c2[nH]c2ccc(OC)cc12)C3` [19(R)-HEYNEANINE], the IC50 is reported as 730 µM.
In the case of `CC[C@H]1C[C@@H]2CN3CC[C@]4(O)C(=Nc5ccccc54)[C@](C(=O)OC)(C2)[C@H]13` [CORONARIDINE HYDROXYINDOLENINE], the IC50 is reported as > 1000 µM.
For `CC[C@H]1C[C@@H]2CN3CCc4c([nH]c5ccccc45)[C@](C(=O)OC)(C2)[C@H]13` [CORONARIDINE], the IC50 was 8.6 µM.
With `COC(=O)[C@@]12C[C@@H]3C[C@H]([C@H](C)O)[C@@H]1N(CC[C@]1(O)C2=Nc2ccccc21)C3` [HEYNEANINE HYDROXYINDOLENINE] the IC50 was > 1000 µM.
For `CC[C@H]1C[C@@H]2CN3CCc4c([nH]c5ccc(OC)cc45)[C@](C(=O)OC)(C2)[C@H]13` [VOACANGINE], the IC50 was 4.4 µM.
In the case of `COC(=O)[C@@]12C[C@@H]3C[C@H]([C@H](C)O)[C@@H]1N(CCc1c2[nH]c2ccc(OC)cc12)C3` [VOACRISTINE], the IC50 is reported as 420 µM.
With `C/C=C1/CN(C)[C@H]2Cc3c([nH]c4ccccc34)C(=O)C[C@H]1[C@@H]2C(=O)OC` [VOBASINE] the IC50 was > 1000 µM.
